# Columns and labels:
# [1] = target: T1, adenosine A2 receptor (Rattus norvegicus, UniProt P30543); test: Adenosine Receptor Binding - A2 Receptor Affinity (RBA2); conditions: [3H]NECA, rat striatal membranes; read-out: RBA-2
# T1 construct: 5 mg original tissue weight of rat weight of rat striatal membranes; tissue Pel-Freez (Rogers, Arkansas); host or cells: rat striatum, membrane preparation
# Protocol: Adenosine Receptor Binding - A2 Receptor Affinity (RBA2)
# Brains from 200-500 g mixed sex Sprague-Dawley rats were purchased from Pel-Freez (Rogers, Arkansas). […] Brains were thawed and then kept on ice while the striata were dissected out. […] When needed, tissue was thawed at room temperature, disrupted in a Polytron, and kept on ice until used.
# All incubations were for 60 minutes at 25°C in 12x75 mm glass tubes containing 1 ml Tris with 5 mg original tissue weight of rat weight of rat striatal membranes, 4 nM [^3H]-N-ethyl adenosine-5'-carboxamide ([^3H]NECA), 50 nM N^6-cyclopentyladenosine (to eliminate A1 receptor binding), 10 mM MgCl2, 0.1 units/ml of adenosine deaminase and 1% dimethylsulfoxide. N^6-Cyclopentyladenosine was dissolved at 10 mM in 0.02 N HCI and diluted in Tris. […] Test compounds were dissolved at 10 mM in dimethylsulfoxide on the same day as the experiment, and diluted in dimethylsulfoxide to 100x the final incubation concentration. […] [^3H]NECA was diluted to 40 nM in Tris. The membrane suspension (5 mg/0.79 ml) contained sufficient MgC12 and adenosine deaminase to give 10 mM and 0.1 units/ml, respectively, final concentration in the incubation. For test compounds with lC50 values less than 1 µM, the order of additions was test compound (10 µl), N^6-cyclopentyladenosine (100 µl), [^3H]NECA (100 µl), and membranes (0.79 ml). […] After all additions, the rack of tubes was vortexed, and the tubes were then incubated for 60 min at 25°C in a shaking water bath. The rack of tubes was vortexed an additional time halfway through the incubation.
# incubations were terminated by filtration through 2.4 cm GF/B filters under reduced pressure. Each tube was filtered as follows: the contents of the tube were poured onto the filter, 4 ml of ice-cold Tris were added to the tube and the contents poured onto the filter, and the filter was washed twice with 4 ml of ice-cold Tris. The filtration was complete in about twelve seconds.
# Nonspecific binding was defined as binding in the presence of 100 µM N^6-cyclopentyladenosine, and specific binding was defined as total binding minus nonspecific binding. The IC50 was calculated by weighed nonlinear least squares curve-fitting to the mass-action equation. [formula] • where Y is cpm bound • T is cpm total binding without drug • S is cpm specific binding without drug • D is the concentration of drug • and K is the IC50 of the drug Weighting factors were calculated under the assumption that the standard deviation was proportional to the predicted value of Y. Nonspecific binding was treated as a very large (infinite) concentration of drug in the computer analysis.
# [2] = system: Swiss-Webster male mice; test: Mouse Activity and Screen Test Procedure (MAST): screen test (ST); type: in vivo; conditions: one hour postinjection
# Text: The compounds of the invention are new chemical substances which are useful as pharmaceutical agents for the treatment of psychoses. The antipsychotic activity of representative compounds of the invention was established by the Mouse Activity and Screen Test Procedrue (MAST) described below.
# Nine unfasted Swiss-Webster male mice weighing 20-30 g equally divided into three groups for each drug dose to be tested. That is, data for each dose level was generated by three separated groups of three mice each.
# A minimum of three dose levels (10, 30, and 100 mg/kg) are tested for each drug. Treatments are administered intraperitoneally one hour prior to testing. All dosages are calculated as parent compound and given in volumes of 10 ml/kg. Compounds are dissolved or suspended in 0.2% Methocel. Control animals are injected with Methocel.
# Testing: A two part testing procedure is started one hour postinjection. First, the screen test (ST) is performed (see Pharmac. Biochem. Behav. 6, 351-353, 1977). Briefly this test consists of placing mice on individual wire screens which are then rotated 180 degrees at the start of a 60 second observation period. The number of mice falling off the inverted screen is recorded.
# Data: The data obtained from the screen test are expressed as percent of mice falling off the screen. Data derived from locomotor activity of drug treated mice are compared to the activity of vehicle treated animals and are expressed as percent inhibition of spontaneous locomotion. All percentages reported for inhibition of locomotion (LI) are based upon data accumulated for one hour. Both phases of testing are graded: A=60-100%; G=31-59%; and N=0-30%. An overall dose rating is obtained by the following criteria:
# LAD refers to the lowest dose at which an A rating is achieved. […] Utilizing this procedure, an overall dose rating of A was obtained for the noted compound at the indicated dose. The compounds are identified in the Examples.
# [3] = system: Swiss-Webster male mice; test: Mouse Activity and Screen Test Procedure (MAST): locomotor activity in actophotometer; type: in vivo; conditions: one hour prior to testing
# Protocol: Nine unfasted Swiss-Webster male mice weighing 20-30 g equally divided into three groups for each drug dose to be tested. That is, data for each dose level was generated by three separated groups of three mice each. A minimum of three dose levels (10, 30, and 100 mg/kg) are tested for each drug. Treatments are administered intraperitoneally one hour prior to testing. All dosages are calculated as parent compound and given in volumes of 10 ml/kg. […] Control animals are injected with Methocel. […] The actophotometer consists of a cylindrical chamber whose center is occupied by another cylinder which contains the illumination for six photocells located on the perimeter of the chamber. Six light-beam interruptions equal one count. […] Data: The data obtained from the screen test are expressed as percent of mice falling off the screen. Data derived from locomotor activity of drug treated mice are compared to the activity of vehicle treated animals and are expressed as percent inhibition of spontaneous locomotion. All percentages reported for inhibition of locomotion (LI) are based upon data accumulated for one hour. […] An overall dose rating is obtained by the following criteria: LAD refers to the lowest dose at which an A rating is achieved. […] The compounds are identified in the Examples.
# T1 sequence (P30543 whole entry): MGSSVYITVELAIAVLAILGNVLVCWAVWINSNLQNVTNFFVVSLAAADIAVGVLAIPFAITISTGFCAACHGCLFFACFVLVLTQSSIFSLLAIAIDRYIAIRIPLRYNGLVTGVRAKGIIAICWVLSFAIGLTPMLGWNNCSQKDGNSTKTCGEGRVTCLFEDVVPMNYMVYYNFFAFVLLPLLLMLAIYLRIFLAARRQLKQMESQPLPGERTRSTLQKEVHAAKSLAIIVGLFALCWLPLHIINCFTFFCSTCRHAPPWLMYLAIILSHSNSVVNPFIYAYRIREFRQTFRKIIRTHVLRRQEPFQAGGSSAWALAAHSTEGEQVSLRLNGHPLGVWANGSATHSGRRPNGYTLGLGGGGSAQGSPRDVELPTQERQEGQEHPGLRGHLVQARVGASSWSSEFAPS
IC50 [1],Screen test failure ([2]; 3 mg/kg intraperitoneally),Screen test failure ([2]; 10 mg/kg intraperitoneally),Screen test failure ([2]; 30 mg/kg intraperitoneally),Screen test failure ([2]; 0.1 mg/kg intraperitoneally),Screen test failure ([2]; 0.3 mg/kg intraperitoneally),Screen test failure ([2]; 1 mg/kg intraperitoneally),Screen test failure ([2]; 9.0 mg/kg intraperitoneally),SMILES,Inhibition of mouse locomotor activity ([3]; 3 mg/kg intraperitoneally),Inhibition of mouse locomotor activity ([3]; 10 mg/kg intraperitoneally),Inhibition of mouse locomotor activity ([3]; 30 mg/kg intraperitoneally),Inhibition of mouse locomotor activity ([3]; 0.1 mg/kg intraperitoneally),Inhibition of mouse locomotor activity ([3]; 0.3 mg/kg intraperitoneally),Inhibition of mouse locomotor activity ([3]; 1 mg/kg intraperitoneally),Inhibition of mouse locomotor activity ([3]; 9.0 mg/kg intraperitoneally)
260 nM,0%,0%,0%,–,–,–,–,"OC[C@H]1O[C@@H](n2cnc3c(NC4CCCc5c(O)cccc54)ncnc32)[C@H](O)[C@@H]1O (stereo partly drawn) [Example 16, N^6-[1-(5-hydroxy)-tetralinyl]-adenosine]",−13%,23%,89%,–,–,–,–
243 nM,22%,–,66%,0%,0%,11%,33%,"OC[C@H]1O[C@@H](n2cnc3c(NC4CCCc5ccccc54)ncnc32)[C@H](O)[C@@H]1O (stereo partly drawn) [Example 2, (R)-N^6-[1-Tetralinyl]-adenosine]",95%,–,99%,25%,45%,79%,97%
2850 nM,0%,0%,22%,–,–,–,–,"OC[C@H]1O[C@@H](n2cnc3c(NCC4(O)CCCc5ccccc54)ncnc32)[C@H](O)[C@@H]1O (stereo partly drawn) [Example 23, N^6-[1-hydroxy-1-tetralinyl]methyl adenosine]",19%,16%,77%,–,–,–,–
2030 nM,0%,0%,11%,11%,0%,22%,–,"OC[C@H]1O[C@H](n2cnc3c(NC4CCCc5ccccc54)ncnc32)[C@H](O)[C@@H]1O (stereo partly drawn) [Example 3, (S)-N^6-[1-Tetralinyl]-adenosine]",69%,95%,96%,40%,34%,30%,–
4440 nM,22%,55%,55%,–,11%,22%,–,"CC(=O)OC[C@H]1O[C@@H](n2cnc3c(NC4CCCc5ccccc54)ncnc32)[C@H](O)[C@@H]1O (stereo partly drawn) [Example 15, N^6-(1-tetralinyl)-5'-acetyl-adenosine]",96%,98%,99%,–,46%,87%,–
4010 nM,0%,11%,0%,–,–,–,–,"OC[C@H]1O[C@@H](n2cnc3c(NCC4(O)CCCCc5ccccc54)ncnc32)[C@H](O)[C@@H]1O (stereo partly drawn) [Example 27, N^6-(1-hydroxy-1-benzocycloheptyl]methyladenosine]",1%,33%,33%,–,–,–,–
65.5 nM,22%,11%,55%,0%,11%,0%,–,"OC[C@H]1O[C@@H](n2cnc3c(NCC4=CCc5ccccc54)ncnc32)[C@H](O)[C@@H]1O [Example 22, N^6-[1H-inden-3-yl]methyladenosine]",76%,96%,97%,30%,38%,76%,–
366 nM,11%,0%,0%,–,–,11%,–,"Cc1cc(C)c2c(c1)C(Nc1ncnc3c1ncn3[C@@H]1O[C@H](CO)[C@@H](O)[C@H]1O)CCC2 (stereo partly drawn) [Example 18, N^6-[1-(5,7-dimethyl)-tetralinya]-adenosine]",73%,91%,96%,–,–,44%,–
238 nM,0%,0%,22%,–,–,–,–,OC[C@H]1O[C@@H](n2cnc3c(NC4CCCc5ccc(O)cc54)ncnc32)[C@H](O)[C@@H]1O (stereo partly drawn) [Example 17],44%,88%,91%,–,–,–,–
50500 nM,11%,0%,11%,–,–,–,–,"COc1ccc2c(c1)C(Nc1ncnc3c1ncn3[C@H]1O[C@H](CO)[C@@H](O)[C@H]1O)CCC2 (stereo partly drawn) [Example 9, (S)-N^6-(7-methoxy-1-tetralinyl)-adenosine]",−35%,−11%,−3%,–,–,–,–

SMILES,IC50 [1],Screen test failure ([2]; 3 mg/kg intraperitoneally),Screen test failure ([2]; 10 mg/kg intraperitoneally),Screen test failure ([2]; 30 mg/kg intraperitoneally),Screen test failure ([2]; 0.1 mg/kg intraperitoneally),Screen test failure ([2]; 0.3 mg/kg intraperitoneally),Screen test failure ([2]; 1 mg/kg intraperitoneally),Screen test failure ([2]; 9.0 mg/kg intraperitoneally),Inhibition of mouse locomotor activity ([3]; 3 mg/kg intraperitoneally),Inhibition of mouse locomotor activity ([3]; 10 mg/kg intraperitoneally),Inhibition of mouse locomotor activity ([3]; 30 mg/kg intraperitoneally),Inhibition of mouse locomotor activity ([3]; 0.1 mg/kg intraperitoneally),Inhibition of mouse locomotor activity ([3]; 0.3 mg/kg intraperitoneally),Inhibition of mouse locomotor activity ([3]; 1 mg/kg intraperitoneally),Inhibition of mouse locomotor activity ([3]; 9.0 mg/kg intraperitoneally)
"OC[C@H]1O[C@@H](n2cnc3c(NCC4CCc5ccccc54)ncnc32)[C@H](O)[C@@H]1O (stereo partly drawn) [Example 21, N^6-[2,3-dihydro-1H-inden-1-yl]methyladenosine]",99 nM,0%,22%,55%,–,0%,0%,–,61%,82%,99%,–,−19%,23%,–

# Source: EP0179667B1, “N6-substituted adenosines” (priority 1984, dated 1986)
